“And” between values parts separate entries of the source, which are not always exact repeats. Identical values can stand only once. Counter-ions that a name gives are not always drawn. Like-named read-outs stand apart in the source and are kept apart here.
Assays:
[1] = Plasma pharmacokinetics of PA, GPA and SPA in rats after single oral dose (HPLC-UV, noncompartmental analysis); assay type: in vivo, rats (Rattus norvegicus, outbred Wistar stock, males)
Protocol: (§1) Rats (Rattus norvegicus, outbred Wistar stock, males, 14 weeks old) were obtained from Anima Sp. z o.o. SK & ViVARI s.c. They were acclimated for one week in a temperature- and humidity-controlled environment with a 12 h light/dark cycle and had ad libitum access to food and water.
The drugs and vehicle were administered directly into the animals’ stomachs using a gastric probe. Animals received drugs in a sequential manner.
(§2) Blood samples were stored at −80 °C until analysis.
(§3) This approach reduced the number of animals involved in the experiment, adhering to the principles of the 3R concept. […] No other experimental conditions were altered.
The column temperature was maintained at 25 °C, the analytical wavelength (λmax) was set at 254 nm, and the injection volume was 50 μL. Theophylline was used as the IS.
The total time of analysis for each run was 10 min. Separation was achieved by isocratic elution of the mobile phase, comprising acetonitrile (93:7, v/v) and sodium sulfate 0.05 M pH 2.2 (adjusted with 85% orthophosphoric acid) at a flow rate of 1.0 mL/min through a BDS Hypersil® C18 column (150 mm × 4.6 mm, 5.0 μm particle size) (Thermo Electron Corporation®, Waltham, MA, USA).
(§4) Plasma data were subjected to noncompartmental pharmacokinetic analysis (NCA) using the PKanalix 2024R1 software (Lixoft, France). The maximum plasma concentration (Cmax) and time to reach Cmax (Tmax) were obtained directly from the concentration–time curves. The elimination rate constant (kel) was calculated by linear regression of the final linear part of plasma concentration against time. The elimination half-life (t0.5) was calculated from the formula t0.5 = 0.693/kel. The area under the concentration–time curve (AUC) was calculated using the linear trapezoidal rule. All data were presented as mean ± SD.

[2] = IIIPA group: PA 100 mg/kg b.w. + vehiculum, n = 8, mean ± SD, cited from earlier work
[3] = patients taking lorlatinib compared to controls; cited from earlier work
[4] = Plasma pharmacokinetics of REG, M-2 and M-5 in rats after single oral dose (UPLC-MS/MS, noncompartmental analysis); assay type: in vivo, rats (Rattus norvegicus, outbred Wistar stock, males); details: for AUC0–∞ increased by / Cmax increased by: after the administration of PA (IREG+PA vs. IIREG); for AUC0–t / AUC0–∞ / Cmax: metabolite of REG
Protocol: as §1
The rats were divided into three groups: one group received REG and PA (IREG+PA), another group received REG (IIREG), and the last group received PA (IIIPA). […] [15] to the IREG+PA and IIIPA groups. The drugs and vehicle were administered directly into the animals’ stomachs using a gastric probe. Animals received drugs in a sequential manner.
as §2, §3
A Cortecs UPLC C18 column (2.1 × 50 mm, 1.6 μm) was equipped with an Acquity UPLC BEH C18 VanGuard pre-column (2.1 × 5 mm, 3/Pk, Waters Corporation). The injection volume was 5 μL. The temperature of the autosampler was 4 °C, and the temperature of the column was 40 °C. Mobile phase A comprised 0.1% aqueous FA solution (v/v) and phase B of ACN:MeOH and 0.1% FA aqueous solution at 1:3 (v/v) ratio. The total run time was 5 min.
The gradient was as follows: 0–0.5 min, with 10% B; 0.5–3 min, 95% B; 3–4 min, 95% B; 4–4.1 min, 10% B; and 4.1–5 min, 10% B. The flow rate was 0.4 mL/min. Positive electrospray ionization (ESI) multiple reaction monitoring (MRM) experiments were conducted for sample analysis. […] The Xevo TQ-S micro mass spectrometer settings were used: source temperature 150 °C, desolvation temperature 600 °C, nitrogen gas flow 900 L/h, and capillary voltage 3.6 kV.
as §4

[5] = mean ± SD, cited from earlier work
[6] = after administration in tablet form; cited from earlier work
plasma proteins = details: cited from earlier work
[7] = IREG+PA group: REG 20 mg/kg b.w. + PA 100 mg/kg b.w., single p.o. dose, n = 8, mean ± SD
[8] = PA co-administered with REG vs. PA alone
[9] = regorafenib and paracetamol vs. control group
[10] = IREG+PA group: REG 20 mg/kg b.w. + PA 100 mg/kg b.w., n = 8, mean ± SD
[11] = IREG+PA group: REG 20 mg/kg b.w. + PA 100 mg/kg b.w., single oral dose, n = 8, mean ± SD
[12] = IIREG group: vehiculum + REG 20 mg/kg b.w., single oral dose, n = 8
[13] = metabolite of REG, IIREG group: vehiculum + REG 20 mg/kg b.w., single oral dose, n = 8

SMILES: CC(=O)Nc1ccc(O)cc1 [PA, paracetamol, reference compound]
- Cmax [1, 7]: 27.08 ± 3.88 (14.3) µg/mL
- t0.5 [1, 7]: 1.14 ± 0.45 (39.7) h
- AUC0–t decreased by [1, 8]: 20.72%
- AUC0–t decreased by ([1]; PA co-administered with REG vs. PA alone, listed as paracetamol): 17.16%
- decrease in Vd/F [1, 9]: 54.04%
- decrease in t0.5 [1, 9]: 49.56%
- Vd/F ([2]; single p.o. dose): 1.98 ± 0.63 mL/g
- t0.5 ([2]; single p.o. dose): 2.26 ± 0.70 (31.0) h
- tmax ([2]; single p.o. dose): 0.81 ± 0.58 (71.2) h
- decrease in AUC0–∞ [3]: 43%
- decrease in Cmax [3]: 15%

SMILES: CC(=O)Nc1ccc(O[C@@H]2O[C@H](C(=O)O)[C@@H](O)[C@H](O)[C@H]2O)cc1 [GPA, paracetamol glucuronide]
- Ratio GPA/PA AUC0–t [1, 10]: 1.50 ± 0.30 (19.7)
- Ratio GPA/PA AUC0–∞ [1, 10]: 1.53 ± 0.34 (21.9)
- Ratio GPA/PA Cmax [1, 10]: 1.02 ± 0.19 (18.9)
- AUC0–t [1, 7]: 97.9 ± 16.13 (16.5) µg × h/mL
- AUC0–∞ [1, 7]: 102.00 ± 18.50 (18.1) µg × h/mL
- Cmax [1, 7]: 27.11 ± 3.05 (11.25) µg/mL
- GPA/PA ratio for Cmax decreased by ([1]; IREG+PA vs. IIIPA): 63.73%
- Gmean ratio (90% CI) of AUC0–t ([1]; IREG+PA vs. IIIPA): 0.72 (0.62; 0.84)
- Gmean ratio (90% CI) of AUC0–∞ ([1]; IREG+PA vs. IIIPA): 0.67 (0.55; 0.80)
- Gmean ratio (90% CI) of Cmax ([1]; IREG+PA vs. IIIPA): 0.71 (0.64; 0.77)
- Gmean ratio (90% CI) of ratio GPA/PA AUC0–t ([1]; IREG+PA vs. IIIPA): 0.87 (0.70; 1.09)
- Gmean ratio (90% CI) of ratio GPA/PA AUC0–∞ ([1]; IREG+PA vs. IIIPA): 0.88 (0.68; 1.13)
- Gmean ratio (90% CI) of ratio GPA/PA Cmax ([1]; IREG+PA vs. IIIPA): 0.62 (0.50; 0.77)
- AUC0–t decreased by [1, 8]: 39.16%
- AUC0–∞ decreased by [1, 8]: 51.1% and 51.07%
- Ratio GPA/PA AUC0–t [2]: 1.75 ± 0.47 (27.1)
- Ratio GPA/PA AUC0–∞ [2]: 1.78 ± 0.54 (30.6)
- Ratio GPA/PA Cmax [2]: 1.67 ± 0.41 (24.8)
- AUC0–t ([2]; single p.o. dose): 136.24 ± 23.58 (17.3) µg × h/mL
- AUC0–∞ ([2]; single p.o. dose): 154.09 ± 35.58 (23.09) µg × h/mL
- Cmax ([2]; single p.o. dose): 38.38 ± 3.75 (9.8) µg/mL

SMILES: CNC(=O)c1cc(Oc2ccc(NC(=O)Nc3ccc(Cl)c(C(F)(F)F)c3)c(F)c2)ccn1 [REG, regorafenib]
- t0.5 [4, 11]: 10.67 ± 2.48 (23.28) h
- AUC0–∞ increased by [4]: 1140%
- Cmax increased by [4]: 890%
- AUC0–∞ [5, 12]: 36.85 ± 5.83 (15.8) µg × h/mL
- Cmax [5, 12]: 1.87 ± 0.31 (16.5) µg/mL
- Vd/F [5, 12]: 2.05 ± 0.61 (29.7) L
- kel [5, 12]: 0.11 ± 0.03 (22.8) 1/h
- Sum of the Cmax values for REG, M-2, and M-5 ([5]; IIREG group): 2078.95 ± 691.36 ng/mL
- average bioavailability [6]: 69%
- bind to plasma proteins (plasma proteins): 99.5%

SMILES: CC(=O)Nc1ccc(OS(=O)(=O)O)cc1 [SPA, paracetamol sulfate]
- Ratio SPA/PA AUC0–t [1, 10]: 2.18 ± 0.50 (22.9)
- Ratio SPA/PA AUC0–∞ [1, 10]: 2.40 ± 0.68 (28.4)
- Ratio SPA/PA Cmax [1, 10]: 1.14 ± 0.12 (10.1)
- AUC0–t [1, 7]: 140.89 ± 17.87 (12.7) µg × h/mL
- AUC0–∞ [1, 7]: 157.71 ± 24.35 (15.4) µg × h/mL
- Cmax [1, 7]: 30.61 ± 3.94 (12.9) µg/mL
- Gmean ratio (90% CI) of AUC0–t ([1]; IREG+PA vs. IIIPA): 2.13 (1.58; 2.86)
- Gmean ratio (90% CI) of AUC0–∞ ([1]; IREG+PA vs. IIIPA): 2.04 (1.54; 2.71)
- Gmean ratio (90% CI) of Cmax ([1]; IREG+PA vs. IIIPA): 1.67 (1.29; 2.15)
- Gmean ratio (90% CI) of ratio SPA/PA AUC0–t ([1]; IREG+PA vs. IIIPA): 2.58 (1.84; 3.60)
- Gmean ratio (90% CI) of ratio SPA/PA AUC0–∞ ([1]; IREG+PA vs. IIIPA): 2.69 (1.94; 3.72)
- Gmean ratio (90% CI) of ratio SPA/PA Cmax ([1]; IREG+PA vs. IIIPA): 1.47 (1.04; 2.09)
- SPA/PA ratio for AUC0–t increased by ([1]; IREG+PA vs. IIIPA): 139.52%
- SPA/PA ratio for AUC0–∞ increased by ([1]; IREG+PA vs. IIIPA): 155.32%
- AUC0–t increased by [1, 8]: 95.89%
- AUC0–∞ increased by [1, 8]: 91.35%
- Cmax increased by [1, 8]: 57.70%
- Ratio SPA/PA AUC0–t [2]: 0.91 ± 0.43 (47.3)
- Ratio SPA/PA AUC0–∞ [2]: 0.94 ± 0.40 (42.4)
- Ratio SPA/PA Cmax [2]: 0.88 ± 0.46 (52.7)
- AUC0–t ([2]; single p.o. dose): 71.92 ± 31.03 (43.2) µg × h/mL
- AUC0–∞ ([2]; single p.o. dose): 82.42 ± 32.71 (39.7) µg × h/mL
- Cmax ([2]; single p.o. dose): 19.41 ± 7.05 (36.4) µg/mL

SMILES: CNC(=O)c1cc(Oc2ccc(NC(=O)Nc3ccc(Cl)c(C(F)(F)F)c3)c(F)c2)cc[n+]1[O-] [M-2, regorafenib-N-oxide]
- AUC0–∞ increased by [4]: 170%
- Cmax increased by [4]: 220%
- AUC0–t [4, 11]: 31,036.39 ± 16,132.08 (52.0) ng × h/mL
- AUC0–∞ [4, 11]: 31,434.01 ± 16,129.53 (51.3) ng × h/mL
- Cmax [4, 11]: 1087.58 ± 471.76 (43.4) ng/mL
- AUC0–t [5, 13]: 9615.36 ± 2275.41 (23.7) ng × h/mL
- AUC0–∞ [5, 13]: 11,469.93 ± 2133.05 (18.6) ng × h/mL

SMILES: NC(=O)c1cc(Oc2ccc(NC(=O)Nc3ccc(Cl)c(C(F)(F)F)c3)c(F)c2)cc[n+]1[O-] [M-5, N-desmethyl-regorafenib-N-oxide]
- AUC0–∞ increased by [4]: 1730%
- Cmax increased by [4]: 2130%
- AUC0–t [4, 11]: 15,054.83 ± 7479.43 (49.7) ng × h/mL
- AUC0–∞ [4, 11]: 15,506.44 ± 8001.74 (51.6) ng × h/mL
- Cmax [4, 11]: 585.96 ± 193.12 (33.0) ng/mL
- AUC0–t [5, 13]: 803.19 ± 177.02 (22.0) ng × h/mL
- AUC0–∞ [5, 13]: 847.88 ± 178.97 (21.1) ng × h/mL

Reference: PMC11597746 (Pharmaceutics, 2024)
